Data: EP0437336B1, “Biophosphoryl hydrazines and their use as pesticides” (priority 1990, dated 1991)
≈ marks a conversion by molar mass, not a printed value. Where two headings read alike, the source gives them in different places.

Columns and labels:
[1] = system: Two-Spotted Spider Mite; assay: Biological Method D: Foliar Insecticidal Activity Test, mite test; assay type: in vivo, Tetranychus urticae; set-up: key to LC50 TSM: I = inactive at concentration listed; settings: for LC50: Tetranychus urticae, 24 h, read-out: TSM LC50; for LC50 / TSM LC50: foliar spray, kill after twenty-four hours
Protocol: (§1) Biological Method D: Foliar Insecticidal Activity Test
(§2) In evaluating the foliar insecticidal activity of the compounds of this invention against insects and mites, the following test procedures were employed.
(§3) Not all compounds were tested at each of the several concentrations stated above. Test concentrations of a compound were selected as those most likely to differentiate dose response of a particular compound toward a particular test insect.
(§4) Initial evaluations were made on one or more of the following pests:
For the mite test, infested bean (Phaseolus limensis var. Woods Prolific) leaf discs [3.18 cm (1.25") in diameter] containing about 50 mites were placed in a Petri dish lid on a moistened piece of cotton. The leaves were then sprayed to thorough wetness with the test solution using a rotating turntable, held for twenty-four hours and then the percentage killed was determined.
(§5) The mortalities obtained in this manner were plotted on logarithmic probability paper.
(§6) The rotating turntable consists of a fixed, continuously operating spray nozzle under which targets are rotated at a fixed speed and distance. If the target is a Petri dish (such as for the bean beetle, armyworm, mite, or aphid tests), the distance from the nozzle is 38.1 cm (15 inches). If the target is a Mason jar (such as for the boll weevil test), the distance from the nozzle is 17.8 cm (7 inches). The nozzle is located 8 inches from the rotating shaft. The targets on individual platforms revolve around the shaft at 1 revolution per 20 seconds but only a brief portion of this time occurs in the spray path. Targets pass only once under the nozzle and then are removed to drying hoods.
(§7) The nozzle used is a 1/4 JCO Spraying Systems (Wheaton, Illinois) air atomizing nozzle equipped with a No. 2850 fluid cap and a No. 70 air cap. At the 68.95 x 10³ Pa gauge (10 psig) air pressure used and with liquid siphon feed, 1.89 ℓ/hr [0.5 GPH (gallons per hour)] are delivered in a round spray pattern with a 21 degree spray angle. Targets are misted with spray droplets to the point that the droplets coalesce to form a uniform thin film insufficient to drown test organisms.

[2] = system: Southern Armyworm; assay: Biological Method D: Foliar Insecticidal Activity Test, Southern Armyworm test; assay type: in vivo, Spodoptera eridania; set-up: key: I = inactive at concentration listed
Protocol: as §1, §2, §3, §4
(§8) For the Mexican Bean Beetle and Southern armyworm tests, individual lima bean (Phaseolus limeniss var. Woods' Prolific) leaves were placed on moistened pieces of filter paper in Petri dishes. The leaves were then sprayed with the test solution using a rotating turntable and allowed to dry. The dishes were then infested with 10 third instar larvae of either the Mexican Been Beetle or the Southern Armyworm. The dishes were then covered. Percent mortality was determined for each species and spray concentration at 48 and 96 hours after treatment.
as §5, §6, §7

[3] = system: southern corn rootworm, Diabrotica undecimpunctata howardi; assay: Biological Method A: Corn Rootworm Screening Test (treated non-aggressive soil); settings: soil concentration giving 90% mortality, 10 days at 27°C
[4] = system: Boll Weevil; assay: Biological Method D: Foliar Insecticidal Activity Test, boll weevil test; assay type: in vivo, Anthonomous grandis; set-up: key: I = inactive at concentration listed
Protocol: as §1, §2, §3, §4
(§9) For the boll weevil test, 10 adult weevils were placed in a 0.24 ℓ (0.5 pint) glass Mason jar containing a small cube of apple. The weevils were confined to the jar by fiberglass screen mesh secured by a screw-type rim cap. The jars were then sprayed with the test solution using a rotating turntable; directing the spray through the mesh into the jar. The percentage killed was determined after forty-eight and ninety six hours.
as §5, §6, §7

[5] = system: southern corn rootworm, Diabrotica undecimpunctata howardi; settings: Diabrotica undecimpunctata, in Zea mays, foliar, 336 h, read-out: foliar systemic nonagressive Method B crw % control at 0.56 kg/ha (0.5 lb/acre)
[6] = system: Mexican Bean Beetle; assay: Biological Method D: Foliar Insecticidal Activity Test, Mexican Bean Beetle test; assay type: in vivo, Epilachna varivestis; settings: Epilachna varivestis
Protocol: as §1, §2, §3, §4, §8, §5, §6, §7

[7] = system: Green Peach Aphid; assay: Biological Method D: Foliar Insecticidal Activity Test, aphid test; assay type: in vivo, Myzus persicae; set-up: key: I = inactive at concentration listed
Protocol: as §1, §2, §3, §4
(§10) For the aphid test, infested broccoli (Brassica oleracea italica var. DiCicco) leaves containing about 50 aphids were placed in a Petri dish lid on a moistened piece of cotton. The leaves were then sprayed to thorough wetness with the test solution using a rotating turntable, held for twenty-four hours and then the percentage killed was determined.
as §5, §6, §7

[8] = system: Green Peach Aphid; assay: as above; assay type: in vivo, Myzus persicae; settings: foliar spray; kill after twenty-four hours
Protocol: as §1, §2, §3, §4, §10, §5, §6, §7

[9] = system: Southern Armyworm; assay: Biological Method D: Foliar Insecticidal Activity Test, Southern Armyworm test; assay type: in vivo, Spodoptera eridania; settings: foliar spray; for AW 48 hrs LC50: 48 hours after treatment; for AW 96 hrs LC50: 96 hours after treatment
Protocol: as §1, §2, §3, §4, §8, §5, §6, §7

[10] = system: Boll Weevil; assay: Biological Method D: Foliar Insecticidal Activity Test, boll weevil test; assay type: in vivo, Anthonomous grandis; settings: spray into jar
Protocol: as §1, §2, §3, §4, §9, §5, §6, §7

[11] = system: southern corn rootworm, Diabrotica undecimpunctata howardi; settings: at-planting soil application
[12] = foliar spray, 48 hours after treatment, read-out: BB 48 hrs. LC50
[13] = foliar spray, 96 hours after treatment, read-out: BB 96 hrs LC50

Compound | primary nonagressive Method A crw LC90 [3] | LC50 [1] | GPA LC50 [8] | AW 48 hrs LC50 [9] | AW 96 hrs LC50 [9] | BW 48 hrs LC50 [10] | BW 96 hrs LC50 [10] | LC50 [6, 12] | LC50 [6, 13] | further results
CCOP(=S)(NNP(=S)(OCC)O[C@H]1C[C@@H](C)CC[C@@H]1C(C)C)OCC (some centres unmarked) [Compound 35] | 0.77 ppm | – | – | – | – | – | – | – | – | LC50 TSM ([1]; Method D foliar test, Two-Spotted Spider Mite): I; LC50 AW 48 hrs ([2]; 48 hrs): I; LC50 AW 96 hrs ([2]; 96 hrs): I; LC50 BW 48 hrs ([4]; 48 hrs): I; LC50 BW 96 hrs ([4]; 96 hrs): I; pest or weed control at 560 g/ha [5]: 38%; LC50 ([6]; Method D foliar test, Mexican Bean Beetle, 48 hrs, read-out: LC50 BB 48 hrs.): 250 µg/mL (≈ 560 µM); LC50 ([6]; Method D foliar test, Mexican Bean Beetle, 96 hrs, read-out: LC50 BB 96 hrs): 52 µg/mL (≈ 116 µM); LC50 GPA [7]: I
CCCN(C)P(=S)(NNP(=S)(OCC)OCC)OCC (centres unmarked) [Compound 76] | 1.1 ppm | 150 µg/mL (≈ 413 µM) | I | I | I | I | I | 150 µg/mL (≈ 413 µM) | 62 µg/mL (≈ 171 µM) | –
CCCCCCOP(=S)(NNP(=S)(OCC)OCC)OCC (centres unmarked) [Compound 77] | 1.1 ppm | – | I | I | I | I | I | 150 µg/mL (≈ 382 µM) | 150 µg/mL (≈ 382 µM) | TSM LC50 [1]: I
CCOP(=S)(NNP(=S)(OCC)OCC(F)(F)C(F)(F)F)OCC (centres unmarked) [Compound 78] | 1.1 ppm | 150 µg/mL (≈ 341 µM) | I | I | I | I | I | 360 µg/mL (≈ 818 µM) | 150 µg/mL (≈ 341 µM) | –
CCOP(=S)(NNP(=S)(OCC)OC(C)C)OC(C)C (centres unmarked) [Compound 67, reference compound] | 0.09 ppm | 150 µg/mL (≈ 412 µM) | I | I | I | I | I | 150 µg/mL (≈ 412 µM) | 62 µg/mL (≈ 170 µM) | –
CCCOP(=S)(NNP(=S)(OCC)OC(C)(C)C(F)(F)F)OCC (centres unmarked) [Compound 69] | 1.1 ppm | 360 µg/mL (≈ 833 µM) | I | I | I | I | I | 500 µg/mL (≈ 1160 µM) | 62 µg/mL (≈ 143 µM) | –
CCOP(=S)(NNP(=S)(OCC)OCC(C)C)OCC(C)C (centres unmarked) [Compound 66, reference compound] | 0.09 ppm | – | I | I | I | I | I | – | 150 µg/mL (≈ 382 µM) | TSM LC50 [1]: I; secondary aggressive Method C crw LC50 ([11]; rated 17 days post-infestation): ~1.91 kg/ha; secondary aggressive Method C crw LC50 ([11]; value in brackets): ~1.7 lb/acre
CCOP(=S)(NNP(=S)(OCC(C)(C)C)OC(C)C)OCC (centres unmarked) [Compound 68] | 1.1 ppm | 520 µg/mL (≈ 1320 µM) | I | I | I | I | I | 500 µg/mL (≈ 1270 µM) | 150 µg/mL (≈ 382 µM) | –
CCOP(=S)(NNP(=S)(OCC)N(C)CC)OCC (centres unmarked) [Compound 75] | 1.1 ppm | 150 µg/mL (≈ 429 µM) | I | I | I | I | I | 500 µg/mL (≈ 1430 µM) | 150 µg/mL (≈ 429 µM) | –
